Data reported in patent US6511997B1, “Aminopyrazole derivatives” (Teikoku Hormone Mfg. Co., Ltd., priority 1998, dated 2003).

Row | SMILES | melting point [°C]
1 | O=C(Cc1ccccc1)Nc1n[nH]c(-c2ccccc2)c1-c1ccncc1 [Example 9, 3-Phenylacetylamino-5-phenyl-4-(4-pyridyl)pyrazole] | 257.3 to 264.1
2 | C[C@H](NC(=O)OC(C)(C)C)C(=O)Nc1n[nH]c(-c2ccc(F)cc2)c1-c1ccncc1 [Example 86, 3-(N′-Carbo-t-butoxy-L-alanylamino)-5-(4-fluorophenyl)-4-(4-pyridyl)pyrazole] | 223 to 224.7
3 | Cn1nc(-c2ccc(F)cc2)c(-c2ccncc2)c1NC(=O)Cc1cccc(F)c1F [Example 49, 5-(2,3-Difluorophenylacetylamno)-3-(4-fluorophenyl)-1-methyl-4-(4-pyridyl)pyrazole] | 181.3 to 182.5
4 | Cn1nc(-c2ccc(Cl)c(Cl)c2)c(-c2ccncc2)c1NC(=O)Cc1ccccc1 [Example 111, 3-(3,4-Dichlorophenyl)-1-methyl-5-phenylacetylamino-4-(4-pyridyl)pyrazole] | 198.4 to 199.1
5 | COc1ccc(CC(=O)N(C)c2c(-c3ccncc3)c(-c3ccc(F)cc3)nn2C)cc1 [Example 126, 3-(4-Fluorophenyl)-1-methyl-5-[N-methyl-N-(4-methoxyphenylacetyl)amino]-4-(4-pyridyl)pyrazole] | 175.8 to 178.1
6 | Cn1nc(-c2ccc(F)cc2)c(-c2ccncc2)c1NC(=O)Cc1ccncc1 [Example 78, 3-(4-Fluorophenyl)-1-methyl-4-(4-pyridyl)-5-(4-pyridylacetylamino)pyrazole] | 141.3 to 143.4
7 | CC(C(=O)Nc1n[nH]c(-c2ccc(F)cc2)c1-c1ccncc1)c1ccccc1 (stereo not shown) [Example 5, 5-(4-Fluorophenyl)-3-(2-phenylpropionylamino)-4-(4-pyridyl)pyrazole] | 240.6 to 241
8 | Cn1nc(-c2ccc(F)cc2)c(-c2ccncc2)c1NC(=O)Cc1c(F)cccc1F [Example 46, 5-(2,6-Difluorophenylacetylamino)-3-(4-fluorophenyl)-1-methyl-4-(4-pyridyl)pyrazole] | 239.9 to 242.5
9 | CCn1nc(-c2ccc(F)cc2)c(-c2ccncc2)c1NC(=O)Cc1ccccn1 [Example 100, 1-Ethyl-3-(4-fluorophenyl)-4-(4-pyridyl)-5-(2-pyridylacetylamino)pyrazole] | 147.5 to 149.5
10 | Cn1nc(-c2ccc3c(c2)OCO3)c(-c2ccncc2)c1NC(=O)Cc1ccccc1 [Example 109, 1-methyl-3-(3,4-methylenedioxyphenyl)-5-phenylacetylamino-4-(4-pyridyl)pyrazole] | 127.5 to 132.1
11 | CC(C)[C@H](NC(=O)OC(C)(C)C)C(=O)Nc1n[nH]c(-c2ccc(F)cc2)c1-c1ccncc1 [Example 87, 3-(N′-Carbo-t-butoxy-L-valylamino)-5-(4-fluorophenyl)-4-(4-pyridyl)pyrazole] | 217.1 to 217.6
12 | COCC(=O)Nc1n[nH]c(-c2ccc(F)cc2)c1-c1ccncc1 [Example 15, 5-(4-Fluorophenyl)-3-methoxyacetylamino-4-(4-pyridyl)pyrazole] | 246 to 248
13 | CC(C)C(=O)Nc1n[nH]c(-c2ccc(F)cc2)c1-c1ccncc1 [Example 18, 5-(4-Fluorophenyl)-3-isobutyrylamino-4-(4-pyridyl)pyrazole] | 291.1 to 294
14 | CSc1ccc(CC(=O)Nc2c(-c3ccncc3)c(-c3ccc(F)cc3)nn2C)cc1 [Example 71, 3-(4-Fluorophenyl)-1-methyl-5-(4-methylthiophenylacetyl-amino)-4-(4-pyridyl)pyrazole] | 182.5 to 184.7
15 | Nc1ccccc1CC(=O)Nc1n[nH]c(-c2ccc(F)cc2)c1-c1ccncc1 [Example 93, 5-(4-fluorophenyl)-3-(2-aminophenylacetylamino)-4-(4-pyridyl)pyrazole] | 196.3 to 197.1
16 | CC(C(=O)Nc1c(-c2ccncc2)c(-c2ccc(F)cc2)nn1C)c1ccccc1 (stereo not shown) [Example 73, 3-(4-Fluorophenyl)-1-methyl-5-(2-phenylpropionylamino)-4-(4-pyridyl)pyrazole] | 210 to 214.9
17 | Cn1nc(-c2ccc(F)cc2)c(-c2ccncc2)c1NC(=O)Nc1ccccc1 [Example 136, 3-(4-fluorophenyl)-1-methyl-5-(phenylaminocarbonylamino)-4-(4-pyridyl)pyrazole] | 287.5 to 290.2
18 | CN(C(=O)Cc1c(Cl)cccc1Cl)c1c(-c2ccncc2)c(-c2ccc(F)cc2)nn1C [Example 122, 5-[N-(2,6-dichlorophenylacetyl)-N-methylamino]-3-(4-fluorophenyl)-1-methyl-4-(4-pyridyl)pyrazole] | 205.7 to 207.8
19 | Cn1nc(-c2ccc(F)cc2)c(-c2ccncc2)c1NC(=O)Cc1ccc2c(c1)OCO2 [Example 43, 3-(4-Fluorophenyl)-1-methyl-5-(3,4-methylenedioxyphenylacetylamino)-4-(4-pyridyl)pyrazole] | 113.6 to 116.5

Now from value to molecule:

Row | melting point [°C] | SMILES
20 | 176.5 to 178.5 | CCCn1nc(-c2ccc(F)cc2)c(-c2ccncc2)c1NC(=O)Cc1ccccc1 [Example 99, 3-(4-Fluorophenyl)-5-phenylacetylamino-1-propyl-4-(4-pyridyl)pyrazole]
21 | 162.8 to 163.9 | Cn1nc(-c2ccc(F)c(Cl)c2)c(-c2ccncc2)c1NC(=O)Cc1ccc(F)cc1Cl [Example 112, 3-(3-Chloro-4-fluorophenyl)-5-(2-chloro-4-fluorophenylacetylamino)-1-methyl-4-(4-pyridyl)pyrazole]
22 | 264.6 to 268.3 | O=C(Cc1cccs1)Nc1n[nH]c(-c2ccc(F)cc2)c1-c1ccncc1 [Example 11, 5-(4-Fluorophenyl)-4-(4-pyridyl)-3-(2-thienylacetylamino)pyrazole]
23 | 164.9 to 166.5 | Cn1nc(-c2ccc(F)cc2)c(-c2ccncc2)c1NC(=O)Cc1ccccc1 [Example 117, 3-(4-Fluorophenyl)-1-methyl-5-phenylacetylamino-4-(4-pyridyl)pyrazole]
24 | 273.7 to 275.8 | CCCCC(=O)Nc1n[nH]c(-c2ccc(F)cc2)c1-c1ccncc1 [Example 20, 5-(4-Fluorophenyl)-4-(4-pyridyl)-3-valerylaminopyrazole]
25 | 127.1 to 128.6 | Cn1nc(-c2ccc(F)cc2)c(-c2ccncc2)c1NC(=O)Cc1ccc(O)cc1 [Example 95, 5-(4-hydroxyphenylacetylamino)-3-(4-fluorophenyl)-1-methyl-4-(4-pyridyl)pyrazole]
26 | 180.3 to 183.6 | O=C(Cc1ccccc1)Nc1c(-c2ccncc2)c(-c2ccc(F)cc2)nn1CCO [Example 105, 3-(4-Fluorophenyl)-1-(2-hydroxyethyl)-5-phenylacetylamino-4-(4-pyridyl)pyrazole]
27 | 223.8 to 227.6 | Cn1nc(-c2ccc(F)cc2)c(-c2ccncc2)c1NC(=O)Cc1ccccc1Br [Example 57, 5-(2-Bromophenylacetylamino)-3-(4-fluorophenyl)-1-methyl-4-(4-pyridyl)pyrazole]
28 | 219 to 221.2 | CCn1nc(-c2ccc(F)cc2)c(-c2ccncc2)c1NC(=O)Cc1ccccc1 [Example 97, 1-Ethyl-3-(4-fluorophenyl)-5-phenylacetylamino-4-(4-pyridyl)pyrazole]
29 | 190 to 191.3 | C[C@H](NC(=O)OCc1ccccc1)C(=O)Nc1n[nH]c(-c2ccc(F)cc2)c1-c1ccncc1 [Example 84, 3-(N′-carbobenzoxy-L-alanylamino)-5-(4-fluorophenyl)-4-(4-pyridyl)pyrazole]
30 | 239.1 to 241.5 | CC(C)(C(=O)Nc1n[nH]c(-c2ccc(F)cc2)c1-c1ccncc1)c1ccccc1 [Example 33, 3-(α,α-Dimethylphenylacetylamino)-5-(4-fluorophenyl)-4-(4-pyridyl)pyrazole]
31 | 282.1 to 288.4 | O=C(Cc1ccc(C(F)(F)F)cc1)Nc1n[nH]c(-c2ccc(F)cc2)c1-c1ccncc1 [Example 8, 5-(4-Fluorophenyl)-4-(4-pyridyl)-3-(4-trifluoromethylphenylacetylamino)pyrazole]
32 | 229 to 232.7 | Cn1nc(-c2ccc(F)cc2)c(-c2ccncc2)c1NC(=O)Cc1ccc(F)cc1Cl [Example 39, 5-(2-Chloro-4-fluorophenylacetylamino)-3-(4-fluorophenyl)-1-methyl-4-(4-pyridyl)pyrazole]
33 | 291.1 to 294 | CC(C)CC(=O)Nc1n[nH]c(-c2ccc(F)cc2)c1-c1ccncc1 [Example 19, 5-(4-Fluorophenyl)-3-isovalerylamino-4-(4-pyridyl)pyrazole]
34 | 178.1 to 180.4 | COc1cc(CC(=O)Nc2c(-c3ccncc3)c(-c3ccc(F)cc3)nn2C)cc(OC)c1OC [Example 54, 3-(4-Fluorophenyl)-1-methyl-4-(4-pyridyl)-5-(3,4,5-trimethoxyphenylacetylamino)pyrazole]
35 | 279.3 to 280.1 | Cn1nc(-c2ccc(Cl)c(Cl)c2)c(-c2ccncc2)c1NC(=O)Cc1ccc(F)cc1Cl [Example 115, 5-(2-Chloro-4-fluorophenylacetylamino)-3-(3,4-dichlorophenyl)-1-methyl-4-(4-pyridyl)pyrazole]
36 | 78.5 to 80.2 | Cn1nc(-c2ccc(F)cc2)c(-c2ccncc2)c1NC(=O)Cc1cccc(Br)c1 [Example 58, 5-(3-Bromophenylacetylamino)-3-(4-fluorophenyl)-1-methyl-4-(4-pyridyl)pyrazole]
37 | 208.5 to 210.2 | Cn1nc(-c2ccc(F)cc2)c(-c2ccncc2)c1NC(=O)Cc1cc(F)cc(F)c1 [Example 48, 5-(3,5-Difluorophenylacetylamino)-3-(4-fluorophenyl)-1-methyl-4-(4-pyridyl)pyrazole]
38 | 205.3 to 206.4 | CC(C)[C@H](N)C(=O)Nc1n[nH]c(-c2ccc(F)cc2)c1-c1ccncc1.Cl
39 | 128.1 to 129.6 | COc1ccc(CC(=O)Nc2c(-c3ccncc3)c(-c3ccc(F)cc3)nn2C)cc1OC [Example 42, 5-(3,4-Dimethoxyphenylacetylamino)-3-(4-fluorophenyl)-1-methyl-4-(4-pyridyl)pyrazole]
40 | 66.9 to 68.8 | Cn1nc(-c2ccc(F)cc2)c(-c2ccncc2)c1NC(=O)Cc1c[nH]c2ccccc12 [Example 82, 3-(4-Fluorophenyl)-5-(indol-3-ylacetylamino)-1-methyl-4-(4-pyridyl)pyrazole]
